Patent publication US8278268B2, “Combination therapy comprising glucose reabsorption inhibitors and PPAR modulators” (Ortho-McNeil Pharmaceutical, Inc., priority 2001, dated 2012)

How the values were obtained:
SGLT-2 in the kidney = molecular target: T1, SGLT-2 in the kidney (Homo sapiens, UniProt P31639); details: compared with T-1095; cited from earlier work
T1 sequence (P31639 1-672): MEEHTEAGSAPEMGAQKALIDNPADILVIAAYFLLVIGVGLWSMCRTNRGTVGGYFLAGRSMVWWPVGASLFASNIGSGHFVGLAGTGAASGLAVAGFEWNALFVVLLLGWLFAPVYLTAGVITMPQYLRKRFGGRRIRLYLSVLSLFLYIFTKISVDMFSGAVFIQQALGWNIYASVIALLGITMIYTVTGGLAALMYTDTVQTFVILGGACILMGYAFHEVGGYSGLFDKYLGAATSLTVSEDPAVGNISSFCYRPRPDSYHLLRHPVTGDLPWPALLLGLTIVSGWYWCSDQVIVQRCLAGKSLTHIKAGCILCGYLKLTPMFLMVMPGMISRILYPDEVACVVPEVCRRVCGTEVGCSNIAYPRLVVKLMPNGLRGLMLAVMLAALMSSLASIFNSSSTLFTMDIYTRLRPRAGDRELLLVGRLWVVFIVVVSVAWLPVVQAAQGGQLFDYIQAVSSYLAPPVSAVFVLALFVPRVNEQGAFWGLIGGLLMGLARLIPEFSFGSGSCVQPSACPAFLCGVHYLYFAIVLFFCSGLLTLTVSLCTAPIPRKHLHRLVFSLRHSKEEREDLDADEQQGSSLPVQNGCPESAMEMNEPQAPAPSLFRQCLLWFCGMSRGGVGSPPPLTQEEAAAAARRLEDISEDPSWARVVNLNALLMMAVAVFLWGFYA

SGLT in the kidney = details: cited from earlier work
db/db mice [1] = experiment: Example 4: plasma glucose AUC following an oral glucose challenge; format: in vivo
Method: (§1) To examine the effect of T-1095 in combination with a PPARγ agonist, male db/db mice (6 weeks of age/Jackson Labs, […]), a PPARγ agonist such as MCC-555 (3 mg/kg-30 mg/kg), T-1095 (3-100 mg/kg), or MCC-555 plus T-1095. Mice (n=8 animals/group) received the test compounds or vehicle by oral gavage in a volume of 10 ml/kg of body weight. Body weight was recorded on day 1, prior to dosing, and twice a week for the duration of the study. One hour after the final dose, mice were weighed and anesthetized with CO2/O2 (70:30). Mice were then bled by retro-orbital sinus puncture into 2 mL heparinized polypropylene tubes on ice. Mice were then fasted overnight and bled by tail-clip prior to receiving a glucose challenge (2 g/kg p.o). Blood was collected at 30, 60.120, and 180 minutes after the challenge. Animals were then sacrificed and epididymal fat pads, livers, and hearts were excised, weighed and frozen for histological examination. Plasma samples were then assayed for glucose, HbA1c, insulin, and triglycerides.

female db/db mice [2] = experiment: Example 1: 11 day oral dosing of rosiglitazone +/− T-1095 in db/db mice; format: in vivo; details: mean
Method: (§2) Mice (n=8 animals/group) received the test compounds or vehicle by oral gavage in a volume of 10 ml/kg of body weight. Body weight was recorded on day 1, prior to dosing, and days 4, 8 and 11. Eighteen hours after the final dose, mice were weighed and anesthetized with CO2/O2 (70:30). Mice were then bled by retro-orbital sinus puncture into 2 mL heparinized polypropylene tubes on ice.
Plasma samples were then assayed for glucose, insulin, and triglycerides using Trinder reagent (Sigma Diagnostics), Elisa (Alpco) and GPO-Trinder (Sigma Diagnostics), respectively.
(§3) Livers were excised, weighed and frozen. […] Heart weight can be measured in an analogous manner.

[3] = system: diabetic rodent models (STZ-induced diabetic rat, yellow KK mice, db/db mice, Zucker Diabetic Fatty rats and GK rats); details: cited from earlier work
db/db mice [4] = experiment: Example 4: 32 day oral dosing of T-1095 +/− MCC-555 in db/db mice; format: in vivo; details: 32 day oral dosing
Method: as §1
Livers and hearts were excised, weighed and frozen.

female db/db mice [5] = experiment: Example 2: 11 day oral dosing of T-1095 +/− rosiglitazone in db/db mice; format: in vivo; details: for Body Weight Change / Liver Weight: −Rosi, mean
Method: as §2, with “ice. Plasma samples were then assayed for glucose, insulin, and triglycerides using Trinder reagent (Sigma Diagnostics), Elisa (Alpco) and GPO-Trinder (Sigma Diagnostics), respectively. Livers and hearts were excised, weighed and frozen.” for “ice.”
as §3

[6] = subcutaneous daily administration; cited from earlier work
[7] = system: Na^+-glucose co-transporters located in chorionic membrane of the intestine and the kidney; details: cited from earlier work

Which “inhibition of SGLT-2 in the kidney” value (SGLT-2 in the kidney) does the source give for `Cc1cc(O)c(C(=O)CCc2ccc3occc3c2)c(OC2OC(CO)C(O)C(O)C2O)c1` (stereo not shown) [T-1095A] here?
Its value is “also a better substrate for the inhibition of SGLT-2 in the kidney”.

What about the “inhibition of SGLT in the kidney” value (SGLT in the kidney) of the same compound?
The value was “selective and potent inhibitor of SGLT in the kidney”.

With `COC(=O)OCC1OC(Oc2cc(C)cc(O)c2C(=O)CCc2ccc3occc3c2)C(O)C(O)C1O` (stereo not shown) [T-1095] as the compound, how does the “AUC glucose % of Vehicle ± SEM” value (db/db mice [1]; 3 mpk T-1095, 32 day oral dosing) read?
The value was 95.75 ± 8.45 % of Vehicle.

And the “AUC glucose % of Vehicle ± SEM” value (db/db mice [1]; 10 mpk T-1095, 32 day oral dosing)?
The value was 76.6 ± 6.85 % of Vehicle.

What about the “AUC glucose % of Vehicle ± SEM” value (db/db mice [1]; 30 mpk T-1095, 32 day oral dosing) of the same compound?
The value was 73.69 ± 5.7 % of Vehicle.

And the “AUC glucose % of Vehicle ± SEM” value (db/db mice [1]; 100 mpk T-1095, 32 day oral dosing)?
The value was 49.1 ± 3.21 % of Vehicle.

And the “Body Weight Change” value (female db/db mice [2]; T1095 100 mpk)?
Its value is 3.96 g.

And the “Liver Weight” value (female db/db mice [2]; T1095 100 mpk)?
The value was 1.88 g.

And the Glucose (female db/db mice [2]; T-1095 100 mpk)?
Its Glucose is “***405.13 mg/dL”.

And the Insulin (female db/db mice [2]; T-1095 100 mpk)?
The Insulin was 93.88 ng/mL.

What about the TG (female db/db mice [2]; T-1095 100 mpk) of the same compound?
The TG was 248.88 mg/dL.

What about the pro-drug conversion ([3]; in vivo, liver) of the same compound?
The pro-drug conversion was “converted to its active form T-1095A in the liver”.

What about the “oral glucose tolerance test and hyperinsulinemic euglycemic clamp” value ([3]; in vivo, po) of the same compound?
Its value is “improvement of glucose tolerance and the reduction of insulin resistance”.

What about the “adverse signs during treatment” value ([3]; in vivo) of the same compound?
The value was “no observed sign of adding weight, infection in the urinary tracts, electrolyte imbalance in plasma, changes in food intake, acute hypoglycemic shock nor pathological changes in the kidney”.

What about the “elevated blood glucose levels” value ([3]; oral administration, rodent models of IDDM and NIDDM) of the same compound?
The value was “suppress elevated blood glucose levels”.

And the “fed and fasting blood glucose levels and HbA1c” value ([3]; treatment for 3 weeks to 6 months, diabetic rodent models)?
Its value is “reduced both fed and fasting blood glucose levels and HbA1c”.

And the “hyperinsulinemia, hypertriglyceridemia, microalbuminuria” value ([3]; yellow KK mice and other diabetic mice models)?
Its value is “decrease in the hyperinsulinemia, hypertriglyceridemia, and the development of microalbuminuria”.

And the “% HbA1C +/− SEM” value (db/db mice [4]; 3 mpk T-1095)?
The value was 6.10 ± 0.16%.

What about the “Body Weight Change (g) ± SEM” value (db/db mice [4]; 3 mpk T-1095) of the same compound?
Its value is -6.09 ± 1.9 g.

And the Glucose (db/db mice [4]; 3 mpk T-1095)?
The Glucose was 490.3 ± 36 mg/dL.

What about the “Heart Weight (g) ± SEM” value (db/db mice [4]; 3 mpk T-1095) of the same compound?
The value was 0.16 ± 0.02 g.

And the Insulin (db/db mice [4]; 3 mpk T-1095)?
The Insulin was 10.7 ± 2.2 ng/dL.

And the “Liver Weight (g) ± SEM” value (db/db mice [4]; 3 mpk T-1095)?
Its value is 1.51 ± 0.1 g.

And the TG (db/db mice [4]; 3 mpk T-1095)?
The TG was 210.90 ± 24 mg/dL.

And the “% HbA1C +/− SEM” value (db/db mice [4]; 10 mpk T-1095)?
Its value is 6.00 ± 0.29%.

What about the “Body Weight Change (g) ± SEM” value (db/db mice [4]; 10 mpk T-1095) of the same compound?
The value was -0.99 ± 1.9 g.

What about the Glucose (db/db mice [4]; 10 mpk T-1095) of the same compound?
The Glucose was 413.1 ± 50 mg/dL.

What about the “Heart Weight (g) ± SEM” value (db/db mice [4]; 10 mpk T-1095) of the same compound?
Its value is 0.13 ± 0.01 g.

What about the Insulin (db/db mice [4]; 10 mpk T-1095) of the same compound?
Its Insulin is 11.4 ± 3.8 ng/dL.

What about the “Liver Weight (g) ± SEM” value (db/db mice [4]; 10 mpk T-1095) of the same compound?
Its value is 1.58 ± 0.08 g.

And the TG (db/db mice [4]; 10 mpk T-1095)?
The TG was 178.10 ± 21 mg/dL.

What about the “% HbA1C +/− SEM” value (db/db mice [4]; 30 mpk T-1095) of the same compound?
The value was 5.38 ± 0.23%.

And the “Body Weight Change (g) ± SEM” value (db/db mice [4]; 30 mpk T-1095)?
The value was -2.44 ± 4.3 g.

What about the Glucose (db/db mice [4]; 30 mpk T-1095) of the same compound?
The Glucose was 380.6 ± 40 mg/dL.

And the “Heart Weight (g) ± SEM” value (db/db mice [4]; 30 mpk T-1095)?
The value was 0.14 ± 0.01 g.

What about the Insulin (db/db mice [4]; 30 mpk T-1095) of the same compound?
Its Insulin is 17.7 ± 5.1 ng/dL.

And the “Liver Weight (g) ± SEM” value (db/db mice [4]; 30 mpk T-1095)?
The value was 1.57 ± 0.09 g.

And the TG (db/db mice [4]; 30 mpk T-1095)?
Its TG is 197.20 ± 26 mg/dL.

And the “% HbA1C +/− SEM” value (db/db mice [4]; 100 mpk T-1095)?
Its value is 4.96 ± 0.24 %.

And the “Body Weight Change (g) ± SEM” value (db/db mice [4]; 100 mpk T-1095)?
Its value is -4.83 ± 2.9 g.

And the Glucose (db/db mice [4]; 100 mpk T-1095)?
The Glucose was 367.2 ± 42 mg/dL.

What about the “Heart Weight (g) ± SEM” value (db/db mice [4]; 100 mpk T-1095) of the same compound?
Its value is 0.14 ± 0.01 g.

What about the Insulin (db/db mice [4]; 100 mpk T-1095) of the same compound?
Its Insulin is 25.5 ± 6.2 ng/dL.

What about the “Liver Weight (g) ± SEM” value (db/db mice [4]; 100 mpk T-1095) of the same compound?
Its value is 1.64 ± 0.11 g.

And the TG (db/db mice [4]; 100 mpk T-1095)?
Its TG is 151.20 ± 17 mg/dL.

And the Glucose (female db/db mice [5]; 3 mpk T-1095, mean)?
The Glucose was 286 mg/dL.

What about the Insulin (female db/db mice [5]; 3 mpk T-1095, mean) of the same compound?
The Insulin was “**22.5 ng/ml”.

And the TG (female db/db mice [5]; 3 mpk T-1095, mean)?
Its TG is 263 mg/dL.

What about the Glucose (female db/db mice [5]; 10 mpk T-1095, mean) of the same compound?
The Glucose was “**263 mg/dL”.

And the Insulin (female db/db mice [5]; 10 mpk T-1095, mean)?
The Insulin was 30.1 ng/mL.

And the TG (female db/db mice [5]; 10 mpk T-1095, mean)?
The TG was 256 mg/dL.

What about the Glucose (female db/db mice [5]; 30 mpk T-1095, mean) of the same compound?
The Glucose was 370 mg/dL.

And the Insulin (female db/db mice [5]; 30 mpk T-1095, mean)?
The Insulin was 23.9 ng/mL.

And the TG (female db/db mice [5]; 30 mpk T-1095, mean)?
The TG was 315 mg/dL.

What about the Glucose (female db/db mice [5]; 100 mpk T-1095, mean) of the same compound?
The Glucose was “**242 mg/dL”.

And the Insulin (female db/db mice [5]; 100 mpk T-1095, mean)?
Its Insulin is 49.1 ng/mL.

What about the TG (female db/db mice [5]; 100 mpk T-1095, mean) of the same compound?
The TG was “**243 mg/dL”.

What about the “Body Weight Change” value (female db/db mice [5]; T-1095 3 mpk) of the same compound?
The value was 3.0 g.

And the “Liver Weight” value (female db/db mice [5]; T-1095 3 mpk)?
Its value is 1.63 g.

What about the “Body Weight Change” value (female db/db mice [5]; T-1095 10 mpk) of the same compound?
Its value is 4.3 g.

And the “Liver Weight” value (female db/db mice [5]; T-1095 10 mpk)?
The value was 1.87 g.

And the “Body Weight Change” value (female db/db mice [5]; T-1095 30 mpk)?
The value was 2.4 g.

And the “Liver Weight” value (female db/db mice [5]; T-1095 30 mpk)?
Its value is 1.75 g.

What about the “Body Weight Change” value (female db/db mice [5]; T-1095 100 mpk) of the same compound?
Its value is 2.3 g.

What about the “Liver Weight” value (female db/db mice [5]; T-1095 100 mpk) of the same compound?
Its value is 1.73 g.

What does the source list for `O=C(CCc1ccc(O)cc1)c1c(O)cc(O)cc1O[C@@H]1O[C@H](CO)[C@@H](O)[C@H](O)[C@H]1O` [phlorizin]?
plasma glucose level [6]: the glucose level in a plasma is controlled at a normal level for a long time; inhibition of Na+-glucose co-transporters [7]: inhibits Na^+-glucose co-transporters
